Source: patent US11897898B2, “Pyridine macrocycle compounds as ASK1 inhibiting agents” (BIOGEN MA INC., priority 2018, dated 2024)

Target: T1, ASK1/MAP3K5 (Homo sapiens, UniProt Q99683)
T1 construct: purchased Reaction Biology Corp. (Malvern, Pa.)
T1 sequence (Q99683 1-1374): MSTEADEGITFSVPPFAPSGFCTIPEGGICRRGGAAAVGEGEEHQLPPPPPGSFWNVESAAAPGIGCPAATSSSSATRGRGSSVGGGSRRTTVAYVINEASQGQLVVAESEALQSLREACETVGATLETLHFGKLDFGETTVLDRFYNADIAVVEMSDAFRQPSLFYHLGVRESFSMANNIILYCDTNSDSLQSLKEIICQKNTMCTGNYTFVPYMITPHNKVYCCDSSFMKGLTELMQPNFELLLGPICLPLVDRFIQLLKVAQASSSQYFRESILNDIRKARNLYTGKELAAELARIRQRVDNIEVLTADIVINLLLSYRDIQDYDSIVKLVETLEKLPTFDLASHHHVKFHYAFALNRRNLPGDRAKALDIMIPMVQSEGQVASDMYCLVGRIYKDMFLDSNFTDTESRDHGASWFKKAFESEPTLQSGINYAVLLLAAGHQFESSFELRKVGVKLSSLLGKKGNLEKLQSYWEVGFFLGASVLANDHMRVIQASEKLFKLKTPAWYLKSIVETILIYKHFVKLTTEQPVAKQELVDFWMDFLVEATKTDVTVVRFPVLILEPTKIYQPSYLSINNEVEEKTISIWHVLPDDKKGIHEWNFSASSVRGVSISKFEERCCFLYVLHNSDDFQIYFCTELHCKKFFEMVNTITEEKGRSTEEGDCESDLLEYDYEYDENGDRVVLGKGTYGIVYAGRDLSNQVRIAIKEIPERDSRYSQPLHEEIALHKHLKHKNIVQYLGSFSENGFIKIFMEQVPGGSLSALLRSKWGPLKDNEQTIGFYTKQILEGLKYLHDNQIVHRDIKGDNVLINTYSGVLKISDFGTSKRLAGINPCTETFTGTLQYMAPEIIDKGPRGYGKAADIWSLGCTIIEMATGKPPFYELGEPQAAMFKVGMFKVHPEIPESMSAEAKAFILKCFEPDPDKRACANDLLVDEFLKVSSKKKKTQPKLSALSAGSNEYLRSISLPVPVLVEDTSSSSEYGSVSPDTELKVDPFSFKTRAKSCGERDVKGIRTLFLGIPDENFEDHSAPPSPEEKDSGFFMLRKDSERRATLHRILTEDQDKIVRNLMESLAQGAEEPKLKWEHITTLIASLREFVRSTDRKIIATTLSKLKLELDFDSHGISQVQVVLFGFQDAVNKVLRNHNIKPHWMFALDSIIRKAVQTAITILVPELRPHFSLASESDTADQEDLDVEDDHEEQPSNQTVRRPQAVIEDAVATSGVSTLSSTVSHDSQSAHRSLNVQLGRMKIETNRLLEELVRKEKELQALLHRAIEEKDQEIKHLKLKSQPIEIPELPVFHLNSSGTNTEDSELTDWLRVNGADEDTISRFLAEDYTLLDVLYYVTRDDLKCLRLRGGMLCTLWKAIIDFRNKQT
Experiment: ASK1 enzyme assay (ASK1/MAP3K5 assay by Reaction Biology Corp., 33P-ATP filter-binding)
Type: biochemical
Settings: 20 μM myelin basic protein and 10 μM ATP; class symbols
Method in brief: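 Human ASK1/MAP3K5 in pH 7.5 Hepes buffer with 20 μM myelin basic protein and 10 μM 33P-ATP; compounds preincubated with kinase 20 min at room temperature. Reaction ran 2 h at room temperature; substrate phosphorylation measured by P81 filter binding.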

Structure (SMILES)	IC50 [nM]
C[C@H]1CCCOc2ncccc2C(=O)Nc2cccc(n2)-c2nncn21 (single isomer, unassigned) [Compound 4]	≤ 100
C[C@H]1CCCOc2ncc(Br)cc2C(=O)Nc2cccc(n2)-c2nncn21 (single isomer, unassigned) [Compound 1]	≤ 100

Other lines, results leading:

IC50 [nM]	Structure (SMILES)
≤ 100	C[C@H]1CCCOc2ncc(C(F)(F)F)cc2C(=O)Nc2cccc(n2)-c2nncn21 (single isomer, unassigned) [Compound 41]
≤ 100	C[C@H]1CCCOc2ncc(-c3ccncc3)cc2C(=O)Nc2cccc(n2)-c2nncn21 [Compound 17, (S)-10-Methyl-5^5-(pyridin-4-yl)-1^4H-6-oxa-3-aza-2(2,6),5(3,2)-dipyridina-1(3,4)-triazolacyclodecaphan-4-one]
≤ 100	C[C@H]1CCCOc2ncc(C#N)cc2C(=O)Nc2cccc(n2)-c2nncn21 [Compound 38, (S)-10-Methyl-4-oxo-1^4H-6-oxa-3-aza-2(2,6),5(3,2)-dipyridina-1(3,4)-triazolacyclodecaphane-5^5-carbonitrile]
